Laboratory results taken from patent publication US20250122242A1, “SELECTION SYSTEMS, PEPTIDES DETERMINED THEREWITH, AND METHODS OF USING SAME” (Wisconsin Alumni Research Foundation, priority 2023, published 2025).

Experiments:
hIAPP-T7n = hIAPP-T7n (UniProt P00573+P10997); settings: positive selection on hIAPP, high-throughput sequencing; for Rank (positive selection): top enriched sequences
Excerpt: Next, we examined if our system could discover inhibitors of other disease-associated APPs. We targeted human islet amyloid polypeptide (hIAPP), which forms amyloid deposits in patients with type-2 diabetes that are hypothesized to contribute to […] dysfunction.^40 To create a selection for hIAPP aggregation inhibitors, we simply cloned hIAPP in place of Aβ42 in our selection circuit (FIG. 2B). We used an SP-encoded CZ6 SICLOPPS library (Z=NDT codon encoded amino acid: R, N, D, C, G, H, I, L, F, S, Y, or V) (˜3×10^6 total sequences). This codon set was chosen to reduce the theoretical library size and facilitate library cloning. The library (total of ˜5×10^6 transformants) was cloned on a SP obtained from an additional 250 hours of PACE using a more stringent selection (FIGS. 10A-10D).
We performed five rounds of selection, diluting the SP pool by ten-fold each round (FIG. 4A). […] To verify that we selected phage with higher activity, we measured the propagation of the SP from each round on hIAPP selection cells, normalizing input phage titers to […] to enable head-to-head comparison between phage pools.
(§1) Single colonies of host cells transformed with the appropriate selection plasmids were used to make overnight cultures in 2×YT with maintenance antibiotics. The overnight culture was diluted (1:100) into 4-5 mL DRM with maintenance antibiotics and incubated at 37° C. with shaking until the OD600 of the culture reached ˜0.5, upon which the expanded phage library was added at a titer of 1×10^6 pfu/mL. The culture was incubated at 37° C. with shaking overnight (13-18 h). The next day, the culture was centrifuged at 8,000 rcf for 2 min to obtain the supernatant containing phage. The collected phage was diluted into fresh host cell cultures (10 to 1,000-fold) for the next round of selection, while the rest was stored at 4° C. for downstream analysis. This process was repeated until a significant increase in phage propagation was observed compared with the parent library. Both positive and negative selection rounds were performed using this procedure.
(§2) Sample preparation. Phage stocks collected from the final rounds of library selection were first amplified using LY0145 and LY0146. The PCR product was purified, and adapters added using LY0147 and LY0148. The resulting PCR product was purified and barcoded through a final PCR using index primers to add unique indices for shared Illumina NovaSeq sequencing. The final PCR product was purified, and the concentration measured by Nanodrop. Further sample quality control was performed by the University of Wisconsin-Madison Biotechnology Center (UWBC).
(§3) High-throughput sequencing and data analysis. High-throughput sequencing was performed by UWBC using a shared sequencing service on the NovaSeq 6000 platform. Sequencing reads were demultiplexed by UWBC and analyzed using custom-written Python scripts.

Aβ42-T7n [1] = biological target: T1, Aβ42-T7n (UniProt P00573+P05067); settings: for Fold enrichment in negative vs. positive selection: percent reads negative vs. positive selection; for Percent total reads (negative selection) / Rank (negative selection): subsequent negative selection against Aβ42, high-throughput sequencing
T1 sequence (P05067+P00573 fused): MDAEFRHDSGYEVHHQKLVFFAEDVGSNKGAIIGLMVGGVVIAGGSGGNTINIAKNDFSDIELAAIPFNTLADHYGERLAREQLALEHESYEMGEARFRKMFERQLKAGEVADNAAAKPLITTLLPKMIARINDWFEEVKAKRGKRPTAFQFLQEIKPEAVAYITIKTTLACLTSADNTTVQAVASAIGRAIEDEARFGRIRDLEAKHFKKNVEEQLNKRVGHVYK
Excerpt: To create a negative selection, we placed gIII-neg, a dominant-negative form of gIII,^44 under PT7 in our selection circuit. Inhibition of a non-target APP (ex. Aβ42) triggers pIII-neg expression and poisons phage proliferation. A second plasmid produces small amounts of pIII from the phage shock promoter (FIG. 16A). All SPs infecting cells encoding this negative selection receive sufficient pIII to propagate. However, SP that carry a promiscuous or false positive cyclic peptide will also produce pIII-neg and generate non-infectious progeny (FIGS. 16B and 16C). We subjected the hIAPP round 5 phage population to four rounds of negative selection, diluting the phage by 100-fold each round (FIG. 5B).
as §1, §2, §3

Aβ42-T7n [2] = biological target: T1, Aβ42-T7n
Excerpt: Therefore, we turned to a split-T7 RNA polymerase (T7 RNAP) reporter used to evolve proteins with improved soluble expression.^33 In our new selection, host E. coli express an aggregation-prone protein (APP) fused to the N-terminal half of split-T7 RNAP (T7n). When the APP-T7n fusion is translated, it misfolds due to the APP, preventing T7n from associating with the C-terminal half of split-T7 RNAP (T7c; FIG. 2A). If a SP-encoded inhibitor binds to and prevents APP aggregation, the fused T7n will remain folded and join with T7c to produce full-length T7 RNAP. The reconstituted T7 RNAP then transcribes gIII, which we place under control of the T7 promoter (PT7), producing pill and allowing the SP to reproduce (FIGS. 2A and 2B).
We used the SICLOPPS method to biosynthesize cyclic peptides that can be selected in E. coli.^15 In SICLOPPS, a precursor fusion consisting of the C-terminal half of the Ssp DnaE split intein, the peptide sequence to be cyclized, and the N-terminal half of the same split intein undergoes intein splicing after translation to produce head-to-tail cyclized peptides (FIG. 7).
Strain S206035 was used for plasmid cloning, amplification, and phage assays. Strain S220835 was used for SP cloning and plaque assays. Plasmids and SPs were cloned by USER assembly or blunt-end ligation. Competent cells were prepared and transformed using the TSS method. Phage propagation and plaque assays were performed as previously described.^54 Unless otherwise noted, phage propagation assays used an input of […] phage to infect a 2 mL culture of host cells.

Aβ42-GFP = Aβ42-GFP folding reporter fluorescence assay; type: cell-based, E. coli; settings: expressed from plasmid, 0.04 mM IPTG, compared with CKVWQLL (FIG. 3H)
Sequence of Aβ42-GFP (P05067 672-713): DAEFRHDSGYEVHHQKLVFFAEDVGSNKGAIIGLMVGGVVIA
Procedure: Single colonies of S2060s transformed with pBL066c and SICLOPPS plasmid were used to make overnight cultures in 2×YT with maintenance antibiotics. The overnight culture was diluted (1:100) into 1 mL DRM on a 96 deep-well plate (VWR, 75870-796) with maintenance antibiotics and IPTG (0, 0.04, 0.2, or 1 mM). The diluted culture was incubated at 37° C. with shaking for 2.5 h, after which aTc (200 ng/mL) was added. 100 μL of the culture was transferred onto a black clear-bottom 96-well plate (VWR, 89131-680) to measure fluorescence signal 2, 3, 5 h after addition of aTc. GFP fluorescence signal (excitation wavelength=485 nm, emission wavelength=535 nm) was then measured using a Tecan M Plex microplate reader.

Aβ42-T7n [3] = biological target: T1, Aβ42-T7n; settings: cyclo-CX6 library, seven rounds on Aβ42-T7n, deep sequencing
Procedure: as §1
Sample preparation. Phage stocks collected from the final rounds of library selection were first amplified using LY0145 and LY0146. The PCR product was purified, and adapters added using LY0147 and LY0148. […] The final PCR product was purified, and the concentration measured by Nanodrop. […]
High-throughput sequencing and data analysis. […] Sequencing reads were demultiplexed by UWBC and analyzed using custom-written Python scripts.

hIAPP = biological target: T2, hIAPP (Homo sapiens, UniProt P10997); assay: ThT fluorescence assay of in vitro hIAPP aggregation; type: biochemical; settings: chemically synthesized peptide, 10 μM hIAPP, PBS pH 6.9, 32° C., quiescent
T2 construct: A 1 mg portion of amylin trifluoroacetate salt (Bachem) was purchased as lyophilized solid in a vial; purchased Bachem
T2 sequence (P10997 34-70 limits assumed): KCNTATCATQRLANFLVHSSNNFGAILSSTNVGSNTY
Procedure: Preparation of ThT stock solution. To prepare a stock solution of ThT (2-3 mM), 2-4 mg of ThT was added to 3 mL PBS (pH 6.9) in a 15 mL conical tube. The solution was sonicated for 5 min and the supernatant was filtered through a 0.22 μm syringe filter into a 1.5 mL Eppendorf tube. This was the ThT stock solution to be used in following experiments. 2 mL of a 1:200 diluted ThT solution was prepared by adding 10 μL ThT stock solution into 1990 μL PBS. The absorbance of the diluted ThT solution measured at 412 nm was used to calculate the ThT stock concentration using an extinction coefficient (c) of 31600 M^−1 cm^−1.
Preparation of hIAPP stocks. A 1 mg portion of amylin trifluoroacetate salt (Bachem) was purchased as lyophilized solid in a vial. The solid was dissolved in pre-chilled 2562 μL 35 mM sodium acetate (pH 5.3) to a stock concentration of 100 μM on ice. Aliquots of hIAPP were prepared by transferring 200 μL of the 100 μM hIAPP stock solution to low-protein-binding Eppendorf tubes on ice. The aliquots were then immediately snap frozen using liquid N2, lyophilized for 24 h, and stored at −80° C. until use.
Preparation of samples for ThT assays. Using cyclic peptide stock solution (100 μM) and PBS, 400 μL aqueous solution of cyclic peptide was prepared in a low-protein-binding Eppendorf tube to achieve the desired cyclic peptide:hIAPP molar ratio (80 μM for 4:1, 40 μM for 2:1, 20 μM for 1:1, 10 μM for 0.5:1, 0 μM for 0:1). 30 μL of the solution was then loaded to wells on a black clear-bottom low-binding 96-well plate (Corning 3881) to make a triplicate for each condition. This plate loaded with aqueous solutions of cyclic peptides was then ready for adding hIAPP.
Preparation and addition of hIAPP for ThT assays. Using ThT stock solution and PBS, 1 mL ThT solution (10 μM) was prepared in a low-protein-binding Eppendorf tube and chilled on ice. 0.5 mL of the pre-chilled ThT solution was added to one aliquot of lyophilized hIAPP, which was equilibrated to room temperature before opening the tube. Pipetting up and down four times was performed to facilitate complete dissolving of hIAPP. The 0.5 mL hIAPP-containing solution was immediately transferred to the remaining 0.5 mL ThT solution on ice. Pipetting up and down four times was performed to facilitate complete mixing. The resulting 1 mL hIAPP solution, where [hIAPP]=20 μM, was immediately transferred to a 25 mL liquid reservoir. Using a multi-channel pipette, 30 μL of the hIAPP solution was quickly loaded into wells containing aqueous solutions of cyclic peptides on the 96-well plate. Final [hIAPP]=10 μM, [ThT]=5 μM.
ThT assay conditions. The plate was then quickly covered and incubated in a Tecan M Plex microplate reader under quiescent condition at 32° C. for at least 12 h. ThT fluorescence at 480 nm was measured every 5 min through the bottom of the plate using an excitation wavelength of 440 nm.
Fitting of aggregation kinetics. ThT aggregation kinetics data was fit to a sigmoidal function using GraphPad Prism and the aggregation lag time (tlag) and the apparent fibril elongation rate (kapp) calculated as described.^55

Sequence of hIAPP-T7n (P10997+P00573 fused): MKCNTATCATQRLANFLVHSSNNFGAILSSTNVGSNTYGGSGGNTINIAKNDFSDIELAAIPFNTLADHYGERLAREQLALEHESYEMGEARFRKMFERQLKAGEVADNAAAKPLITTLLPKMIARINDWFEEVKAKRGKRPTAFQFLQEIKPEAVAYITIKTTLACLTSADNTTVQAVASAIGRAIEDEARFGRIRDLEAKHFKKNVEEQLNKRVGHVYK

inhibition of hIAPP aggregation (ThT fluorescence) (hIAPP)	Substance	Percent total reads (positive selection) (hIAPP-T7n) [%]	Rank (positive selection) (hIAPP-T7n)	Fold enrichment in negative vs. positive selection (Aβ42-T7n [1])	Percent total reads (negative selection) (Aβ42-T7n [1]) [%]	Rank (negative selection) (Aβ42-T7n [1])	phage propagation activity (fitness) on Aβ42-T7n selection (Aβ42-T7n [2]; clonal SP encoding the sequence)	activity in Aβ42-GFP folding reporter assay (Aβ42-GFP)	share of total sequencing reads in final SP pool (Aβ42-T7n [3]) [%]	discrimination between active SP and scrambled control (phage propagation) (Aβ42-T7n [2]; evolved SP (PACE 1 clone 2) (FIG. 2D)) [fold]	increase in phage proliferation compared to SP carrying scrambled control (Aβ42-T7n [2]; parent SP, vs CVQWLKL SP (FIG. 8A)) [fold]
	CCGLYNI	0.31	5	0.48	0.15	31					
	CCHSFFR	0.29	6	2.87	0.83	12					
	CFFRGSD	0.06	18	81.53	4.73	6					
	CFNLVVD	0.08	15	64.65	4.85	5					
	CGIRSLG	0.22	7	20.09	4.48	7					
	CGLGHGN	0.009	53	124.22	1.12	10					
	CHVHSYL	1.82	2	3.31	6.03	4					
	CISCHYG	0.13	8	0.92	0.12	34					
	CIYFHHH	0.12	9	28.44	3.33	8					
	CLNYFHG	0.35	3	20.08	7.05	3					
	CNRLDVS	0.02	26	83.68	1.84	9					
	CRVWCAR (cyclic; Circular) [cyclo-CRVWCAR]						robust propagation	comparable activity to CKVWQLL	~65		
	CVSYILL	0.11	10	4.21	0.45	16					
	CYILSIG	0.34	4	1.10	0.37	18					
	cyclo-CKVWQLL [CKVWQLL SP, reference compound]									~300	~500
completely inactive	linear CDLGVFR										
greatly reduced ability to inhibit hIAPP	linear CHVVGVI [linear CHWGVI]										
moderately inhibited hNAPP aggregation	linear CRCVFSG [linear CRCVSFG]										
